# Assay results published in patent US7326721B2 (Hypnion, Inc., priority 2003, dated 2008).
# Read-outs that look alike come from different tables or passages of the source.
# What was measured:
# hERG = hERG (Homo sapiens, UniProt Q12809)
# human 5HT2a receptor = human 5HT2a receptor (Homo sapiens, UniProt P28223); experiment: 5HT2a (h) binding (Table 28)
# H1 histamine receptor = target: T1, H1 histamine receptor (Bos taurus, UniProt P30546); experiment: Histamine H1 competitive binding assay ([3H]pyrilamine); set-up: species or system bovine; conditions: bovine receptor; read-out: H1 binding
# T1 construct: the receptors were obtained from bovine cerebellar membrane tissue; from tissue; host or cells: bovine cerebellar membranes
# T1 sequence (P30546 whole entry): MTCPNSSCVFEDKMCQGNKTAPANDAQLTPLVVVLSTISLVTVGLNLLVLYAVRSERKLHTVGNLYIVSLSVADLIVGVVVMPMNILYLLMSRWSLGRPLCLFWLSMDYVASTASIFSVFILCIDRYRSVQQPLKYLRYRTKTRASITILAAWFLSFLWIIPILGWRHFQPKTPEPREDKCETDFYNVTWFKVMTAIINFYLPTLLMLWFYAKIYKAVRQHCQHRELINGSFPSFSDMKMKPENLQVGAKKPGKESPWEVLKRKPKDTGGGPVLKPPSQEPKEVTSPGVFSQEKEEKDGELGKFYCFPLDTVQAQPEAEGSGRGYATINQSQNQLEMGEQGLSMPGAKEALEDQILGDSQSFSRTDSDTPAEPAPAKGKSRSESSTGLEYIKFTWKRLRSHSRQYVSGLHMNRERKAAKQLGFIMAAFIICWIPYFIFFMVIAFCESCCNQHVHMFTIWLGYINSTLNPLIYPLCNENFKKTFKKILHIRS
# M1 muscarinic receptor [1] = target: T2, M1 muscarinic receptor (Homo sapiens, UniProt P11229); experiment: Muscarinic M1 binding assay ([3H]-scopolamine, N-methyl chloride)
# T2 sequence (P11229 1-460): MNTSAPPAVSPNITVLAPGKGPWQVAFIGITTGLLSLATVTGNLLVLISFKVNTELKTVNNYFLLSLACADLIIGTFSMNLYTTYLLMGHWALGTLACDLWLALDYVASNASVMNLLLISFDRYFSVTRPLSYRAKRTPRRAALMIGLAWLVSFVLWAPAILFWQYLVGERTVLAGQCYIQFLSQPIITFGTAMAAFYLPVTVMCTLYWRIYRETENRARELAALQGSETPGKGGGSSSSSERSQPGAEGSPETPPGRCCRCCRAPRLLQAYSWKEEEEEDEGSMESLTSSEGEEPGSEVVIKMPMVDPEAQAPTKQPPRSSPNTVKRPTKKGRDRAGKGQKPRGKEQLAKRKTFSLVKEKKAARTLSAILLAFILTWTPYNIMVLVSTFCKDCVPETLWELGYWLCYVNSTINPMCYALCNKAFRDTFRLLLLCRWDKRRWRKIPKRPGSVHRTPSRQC
# 5HT2a (rat) = 5HT2a (rat) (Rattus norvegicus, UniProt P14842); experiment: 5HT2a (rat) binding (Table 28)
# Chain of 5HT2a (rat) (P14842 whole entry): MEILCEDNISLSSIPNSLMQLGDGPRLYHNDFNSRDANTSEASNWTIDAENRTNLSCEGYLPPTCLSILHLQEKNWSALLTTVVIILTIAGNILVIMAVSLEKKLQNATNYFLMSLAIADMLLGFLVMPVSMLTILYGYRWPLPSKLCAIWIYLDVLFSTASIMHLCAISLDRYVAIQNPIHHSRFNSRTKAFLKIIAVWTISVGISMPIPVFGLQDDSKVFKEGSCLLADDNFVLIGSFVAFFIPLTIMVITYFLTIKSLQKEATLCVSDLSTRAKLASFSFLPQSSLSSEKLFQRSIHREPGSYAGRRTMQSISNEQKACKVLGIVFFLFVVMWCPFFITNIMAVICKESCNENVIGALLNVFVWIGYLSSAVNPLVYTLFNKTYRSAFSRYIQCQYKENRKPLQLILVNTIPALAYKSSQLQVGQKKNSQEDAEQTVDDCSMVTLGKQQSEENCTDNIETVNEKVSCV
# Description: (§1) The comparative data is shown in Table 28, unless otherwise noted, binding was measured with the bovine receptors, H1(hR) is the human H1 receptor, 5HT2a (h) is the human 5HT2a receptor. Binding numbers are presented in nM values.
# [2] = target: Adrenergic, Alpha 2, Non-selective; experiment: Table 12 panel: Adrenergic, Alpha 2; assay type: binding; conditions: read-out: α2 binding
# M3 muscarinic receptor = M3 muscarinic receptor (Homo sapiens, UniProt P20309); experiment: Muscarinic M3 binding assay
# Chain of M3 muscarinic receptor (P20309 whole entry): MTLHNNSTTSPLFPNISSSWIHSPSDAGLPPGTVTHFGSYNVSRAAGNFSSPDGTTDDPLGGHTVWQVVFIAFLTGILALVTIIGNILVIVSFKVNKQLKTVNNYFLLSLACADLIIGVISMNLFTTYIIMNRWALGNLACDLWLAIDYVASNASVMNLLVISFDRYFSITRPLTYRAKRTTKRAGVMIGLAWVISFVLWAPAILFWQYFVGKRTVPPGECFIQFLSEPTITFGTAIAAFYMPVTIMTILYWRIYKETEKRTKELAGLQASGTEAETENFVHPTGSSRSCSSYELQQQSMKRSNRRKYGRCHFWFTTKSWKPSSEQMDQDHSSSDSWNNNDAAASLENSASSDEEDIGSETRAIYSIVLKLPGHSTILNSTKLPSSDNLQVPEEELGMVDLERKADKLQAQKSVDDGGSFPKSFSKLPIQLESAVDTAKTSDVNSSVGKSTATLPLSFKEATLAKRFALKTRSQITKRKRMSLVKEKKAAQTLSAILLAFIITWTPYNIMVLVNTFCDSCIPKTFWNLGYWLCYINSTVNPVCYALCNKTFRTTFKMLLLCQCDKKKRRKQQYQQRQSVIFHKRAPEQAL
# Dopamine, D1 = Dopamine, D1 (UniProt P21728); experiment: Dopamine, D1 (human recombinant) binding assay
# adult male Wistar rats = experiment: SCORE-2000 sleep-wakefulness, locomotor activity and body temperature monitoring; assay type: in vivo, rat
# [3] = target: Adrenergic, Alpha 1, Non-selective; experiment: Table 12 panel: Adrenergic, Alpha 1; assay type: binding; conditions: read-out: α1 binding
# [4] = target: Dopamine, D1 (human recombinant) (UniProt P14416); experiment: Dopamine D2 binding assay (printed as D1 in b555)
# Description: In vitro binding assays are used to determine H1 binding (i.e., primary target binding) and M1, M2 and M3 binding (i.e., off target binding). […] Similar assays are performed with H1 and dopamine receptors (D1 and D2), and with H1 and adrenergic receptors (α1 and α2).
# Dopamine, D1 (human recombinant) binding assay was performed according to published procedures. See, e.g., Jarvie, et al. J. Recept Res., 13(1–4): 573–90 (1993); and Gundlach, et al. Life Sciences, 35(19): 1981–8 (1984) with modifications
# human H1 receptor = human H1 receptor (Homo sapiens, UniProt P35367); experiment: H1(hR) binding (Table 28)
# Chain of human H1 receptor (P35367 whole entry): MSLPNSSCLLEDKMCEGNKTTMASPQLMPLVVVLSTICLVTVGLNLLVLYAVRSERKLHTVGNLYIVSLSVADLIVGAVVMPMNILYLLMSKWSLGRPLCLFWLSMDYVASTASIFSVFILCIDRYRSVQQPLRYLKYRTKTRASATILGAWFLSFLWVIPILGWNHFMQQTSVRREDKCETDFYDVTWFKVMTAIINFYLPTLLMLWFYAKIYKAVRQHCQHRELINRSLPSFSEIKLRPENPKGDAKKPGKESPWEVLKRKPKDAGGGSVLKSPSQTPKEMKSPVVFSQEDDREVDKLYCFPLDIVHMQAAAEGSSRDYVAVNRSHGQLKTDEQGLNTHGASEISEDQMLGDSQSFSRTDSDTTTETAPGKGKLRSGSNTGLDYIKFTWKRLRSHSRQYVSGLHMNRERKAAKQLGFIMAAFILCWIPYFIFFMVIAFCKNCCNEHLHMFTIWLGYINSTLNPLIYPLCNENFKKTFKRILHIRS
# Description: as §1
# M2 muscarinic receptor = target: T3, M2 muscarinic receptor (Homo sapiens, UniProt P08172); experiment: Muscarinic M2 binding assay
# T3 sequence (P08172 1-466): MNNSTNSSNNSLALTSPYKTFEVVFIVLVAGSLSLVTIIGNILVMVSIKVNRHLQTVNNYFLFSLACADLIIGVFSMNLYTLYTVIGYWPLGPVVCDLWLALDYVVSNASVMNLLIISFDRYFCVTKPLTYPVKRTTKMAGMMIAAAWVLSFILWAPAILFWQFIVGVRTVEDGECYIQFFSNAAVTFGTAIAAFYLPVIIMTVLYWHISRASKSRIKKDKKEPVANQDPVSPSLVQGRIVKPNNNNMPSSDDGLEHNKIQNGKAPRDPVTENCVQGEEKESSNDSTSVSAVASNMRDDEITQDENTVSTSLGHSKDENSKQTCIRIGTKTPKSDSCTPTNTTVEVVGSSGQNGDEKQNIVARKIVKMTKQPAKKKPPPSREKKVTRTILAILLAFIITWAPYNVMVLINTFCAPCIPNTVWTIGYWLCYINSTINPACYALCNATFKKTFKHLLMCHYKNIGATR
# M1 muscarinic receptor [5] = target: T2, M1 muscarinic receptor; set-up: purchased PerkinElmer, Inc., Wellesley, Mass; host or cells: CHO cells; conditions: reference compounds; read-out: Ki of reference compounds, M1 binding assay; cited from earlier work
# Chain of human 5HT2a receptor (P28223 whole entry): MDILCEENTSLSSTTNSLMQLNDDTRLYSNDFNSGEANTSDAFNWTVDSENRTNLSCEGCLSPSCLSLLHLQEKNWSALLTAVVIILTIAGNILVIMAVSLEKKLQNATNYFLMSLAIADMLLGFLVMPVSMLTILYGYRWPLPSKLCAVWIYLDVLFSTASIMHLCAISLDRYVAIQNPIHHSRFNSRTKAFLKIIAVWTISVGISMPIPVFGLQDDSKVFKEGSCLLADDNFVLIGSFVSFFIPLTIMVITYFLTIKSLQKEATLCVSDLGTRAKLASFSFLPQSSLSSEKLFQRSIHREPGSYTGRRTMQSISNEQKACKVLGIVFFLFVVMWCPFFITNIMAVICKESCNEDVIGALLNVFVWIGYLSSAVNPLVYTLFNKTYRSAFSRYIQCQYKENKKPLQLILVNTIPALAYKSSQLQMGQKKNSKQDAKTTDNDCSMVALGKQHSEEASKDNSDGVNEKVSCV
# Chain of hERG (Q12809 whole entry): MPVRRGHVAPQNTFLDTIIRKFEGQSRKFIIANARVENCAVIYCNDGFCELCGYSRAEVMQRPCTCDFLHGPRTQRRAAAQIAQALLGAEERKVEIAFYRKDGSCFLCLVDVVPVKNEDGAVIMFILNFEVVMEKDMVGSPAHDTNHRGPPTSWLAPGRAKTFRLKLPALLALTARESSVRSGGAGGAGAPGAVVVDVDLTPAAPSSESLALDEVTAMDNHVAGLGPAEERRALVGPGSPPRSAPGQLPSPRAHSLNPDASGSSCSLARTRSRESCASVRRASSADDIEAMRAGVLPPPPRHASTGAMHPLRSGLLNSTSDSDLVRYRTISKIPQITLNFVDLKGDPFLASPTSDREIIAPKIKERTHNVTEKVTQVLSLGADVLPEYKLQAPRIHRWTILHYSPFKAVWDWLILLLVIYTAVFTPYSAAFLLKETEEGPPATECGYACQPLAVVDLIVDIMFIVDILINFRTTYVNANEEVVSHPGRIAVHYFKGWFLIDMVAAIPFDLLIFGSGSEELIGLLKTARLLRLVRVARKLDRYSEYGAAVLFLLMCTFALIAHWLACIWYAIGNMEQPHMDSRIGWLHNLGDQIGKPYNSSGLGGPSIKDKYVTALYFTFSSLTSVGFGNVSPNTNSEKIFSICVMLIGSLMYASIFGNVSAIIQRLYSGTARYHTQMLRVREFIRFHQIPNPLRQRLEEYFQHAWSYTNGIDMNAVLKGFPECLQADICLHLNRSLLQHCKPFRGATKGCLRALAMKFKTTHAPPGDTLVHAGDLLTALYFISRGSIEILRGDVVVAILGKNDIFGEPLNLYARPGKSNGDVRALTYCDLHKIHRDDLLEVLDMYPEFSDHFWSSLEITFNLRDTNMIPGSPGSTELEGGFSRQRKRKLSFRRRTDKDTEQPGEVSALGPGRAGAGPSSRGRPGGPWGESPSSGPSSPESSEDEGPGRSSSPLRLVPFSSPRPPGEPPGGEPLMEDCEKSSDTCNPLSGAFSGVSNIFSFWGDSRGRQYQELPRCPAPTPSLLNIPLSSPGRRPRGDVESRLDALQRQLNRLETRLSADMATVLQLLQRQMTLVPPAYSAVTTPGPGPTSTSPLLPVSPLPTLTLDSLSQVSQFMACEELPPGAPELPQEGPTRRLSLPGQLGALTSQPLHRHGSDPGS
SMILES,"HERG (hERG; human, 10 µM, pH 7.4) [%]",Ki (human 5HT2a receptor) [nM],Ki (H1 histamine receptor) [nM],Ki (M1 muscarinic receptor [1]) [µM],Ki (5HT2a (rat)) [nM],Ki [2] [µM],Ki (M3 muscarinic receptor) [µM],"Ki (Dopamine, D1) [µM]",LUSB 3 mg/kg (adult male Wistar rats; 3 mg/kg),LUSB 10 mg/kg (adult male Wistar rats; 10 mg/kg),NREM cumul. 10 mpk (adult male Wistar rats; 10 mpk),Ki [3] [nM],Ki [4] [µM],Ki (human H1 receptor) [nM],Ki (M2 muscarinic receptor) [µM],Ki (M1 muscarinic receptor [5]) [nM],HERG (hERG) [%]
COc1ccc2c(c1)COc1ccc(F)cc1C2=C1CCN(CCCC(=O)O)CC1 [Compound 10520],56.00,396,22.5,> 10,55.8,> 10,> 10,> 10,4.9 ± 1.7,10.0 ± 2.2,41 ± 8,1090,> 10,43,> 10,–,–
C[N+]1(C)CCC(OC(=O)C(c2ccccc2)c2ccccc2)CC1 [4-DAMP methiodide],–,–,–,–,–,–,–,–,–,–,–,–,–,–,–,0.27,–
COc1ccc2c(c1)COc1ccc(F)cc1C2=C1CCN(CC2(C(=O)O)CC2)CC1 [Compound 10519],–,541,19.8,> 10,56,> 10,> 10,> 10,–,–,–,> 10000,–,34,> 10,–,6.10
